We go through one compound from article PMC10380584, “Functional Characterization of Pheromone Receptors in the Beet Webworm, Loxostege sticticalis (Lepidoptera: Pyralidae)” (Insects, 2023).

The assay has as its system T1, LstiPR2/LstiORco.
T1 construct: full-length LstiPR2 (ORF 1263 bp, printed 421 aa) co-expressed with LstiORco (cRNA 1:1) in Xenopus laevis oocytes, pT7Ts vector; cloned from male antennae; with Odorant receptor coreceptor
Briefly: two-electrode voltage clamp, Xenopus oocytes. It counts as cell-based, Loxostege sticticalis. The settings on record: agonist; co-expressed with LstiORco; holding potential -80 mV; Ringer's buffer pH 7.6. An excerpt:
two-electrode voltage clamp, Xenopus oocytes on LstiPR2/LstiORco | LstiPR2/LstiORco was sensitive to E11-14:OAc

Usually EC50 stands for the concentration giving half of the maximal effect. Low readings indicate an effect from little substance, high ones a need for much substance.

The compound `CC/C=C/CCCCCCCCCCOC(C)=O` [E11-14:OAc, (E)-11-tetradecenyl acetate] registered an EC50 of 12.5 µM.
